Data as given in ChEMBL document CHEMBL1201862, “PubChem BioAssay data set” (2004).
Activity calls are given as the source filed them.

Key:
[1] = biological target: T1, Tyrosine-protein phosphatase non-receptor type 7 (Homo sapiens, UniProt P35236); experiment: inhibitors of human HePTP phosphatase, […], biochemical, absorbance, leukemia target (AID 521); assay type: functional
T1 sequence (P35236 whole entry): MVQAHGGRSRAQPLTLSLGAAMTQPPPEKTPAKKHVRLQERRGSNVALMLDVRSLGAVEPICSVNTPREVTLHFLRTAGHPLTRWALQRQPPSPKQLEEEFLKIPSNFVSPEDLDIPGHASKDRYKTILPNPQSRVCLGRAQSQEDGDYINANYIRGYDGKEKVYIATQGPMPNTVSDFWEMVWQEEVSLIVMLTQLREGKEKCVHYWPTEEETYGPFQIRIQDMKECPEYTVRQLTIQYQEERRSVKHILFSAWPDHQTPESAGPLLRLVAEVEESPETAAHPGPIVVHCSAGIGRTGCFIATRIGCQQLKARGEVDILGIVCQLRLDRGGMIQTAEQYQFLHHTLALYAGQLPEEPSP

[2] = biological target: Bcl-2-like protein 1 (Homo sapiens, UniProt Q07817); experiment: BCL-XL inhibitors, dose response, selectivity assay for MCL1 inhibitor project, biochemical, fluorescence polarization, 1536-well (AID 2218)
Bcl-2-like protein 1, sequence (Q07817 whole entry): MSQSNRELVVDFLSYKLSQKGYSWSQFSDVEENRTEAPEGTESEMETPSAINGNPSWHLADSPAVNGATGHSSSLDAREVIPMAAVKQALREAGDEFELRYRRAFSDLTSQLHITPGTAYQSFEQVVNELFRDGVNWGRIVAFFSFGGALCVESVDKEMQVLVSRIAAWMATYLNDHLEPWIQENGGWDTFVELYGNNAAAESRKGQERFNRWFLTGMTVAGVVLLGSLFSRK

[3] = biological target: Induced myeloid leukemia cell differentiation protein Mcl-1 (Homo sapiens, UniProt Q07820); experiment: MCL1-BIM BH3 interaction inhibitors, dose response, biochemical, fluorescence polarization, BIM-BH3 peptide, 1536-well (AID 2217)
Induced myeloid leukemia cell differentiation protein Mcl-1, sequence (Q07820 whole entry): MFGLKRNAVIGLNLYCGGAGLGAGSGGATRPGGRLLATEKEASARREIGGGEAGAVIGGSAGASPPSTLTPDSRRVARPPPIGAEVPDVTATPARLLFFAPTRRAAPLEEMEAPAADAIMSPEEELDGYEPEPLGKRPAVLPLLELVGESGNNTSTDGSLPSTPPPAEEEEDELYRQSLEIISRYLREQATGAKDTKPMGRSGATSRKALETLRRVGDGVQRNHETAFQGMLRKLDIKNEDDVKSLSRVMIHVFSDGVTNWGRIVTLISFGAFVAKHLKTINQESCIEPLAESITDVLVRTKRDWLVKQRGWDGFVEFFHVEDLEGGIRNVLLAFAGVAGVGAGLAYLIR

[4] = P. falciparum 3D7-ScDHODH growth inhibitors, dose response, SYBR Green, dry powder samples (AID 1159570); assay type: functional, cell-based;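 note: parasite growth measured after 72 hours of compound exposure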
[5] = P. falciparum ATP4 D1247Y mutant growth inhibitors, dose response, NITD609-resistant line, SYBR Green, dry powder (AID 1159571); assay type: functional, cell-based;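 note: parasites synchronized at ring stage by sorbitol before testing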
[6] = P. falciparum Dd2 growth inhibitors, dose response, SYBR Green, dry powder samples (AID 1159566); assay type: functional, cell-based;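 note: potency for growth inhibition with lower SYBR green DNA signal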
[7] = P. falciparum Dd2 growth inhibitors, dose response, SYBR Green, dry powder samples, set 9 (AID 1159568); assay type: functional, cell-based
[8] = P. falciparum Dd2 growth inhibitors, dose response, SYBR Green, cherry-picked samples (AID 1159567); assay type: functional, cell-based
[9] = Luminescence Cell-Based Dose Response to Identify Activators of 5'UTR Stem-Loop Driven Prion Protein mRNA Translation in H4-C Neuroglioblastoma Cells. [Related pubchem assays: 1829 (Project Summary), 1814 (Primary HTS)]; assay type: functional
[10] = test system: H4; experiment: Luminescence Cell-Based Dose Response HTS to Identify Activators of 5'UTR Stem-Loop Driven Prion Protein mRNA Translation in H4 Neuroglioblastoma Cells. [Related pubchem assays: 1829 (Project Summary), 1814 (Primary HTS)]; assay type: functional; conditions: Homo sapiens
[11] = Luminescence Cell-Based Dose Response HTS to Identify Activators of Luciferase Translation or Activity in H4 […] Cells. [Related pubchem assays: 1829 (Project Summary), 1814 (Primary HTS)]; assay type: functional
[12] = Luminescence Cell-Based Dose Confirmation to Identify Activators of 5'UTR Stem-Loop Driven Alpha-Synuclein mRNA Translation in H4 Neuroglioblastoma Cells. [Related pubchem assays: 1829 (Project Summary), 1814 (Primary HTS)]; assay type: functional
[13] = Luminescence Cell-Based Dose Response to Identify Activators of Luciferase Translation or Activity in H4-C Neuroglioblastoma Cells. [Related pubchem assays: 1829 (Project Summary), 1814 (Primary HTS)]; assay type: functional
[14] = biological target: T2, Estrogen receptor beta (Homo sapiens, UniProt Q92731); experiment: ERβ–SRC-3 coactivator interaction inhibitors, confirmation, orthogonal assay, biochemical, ELISA, streptavidin-HRP readout (AID 1060)
T2 sequence (Q92731 whole entry): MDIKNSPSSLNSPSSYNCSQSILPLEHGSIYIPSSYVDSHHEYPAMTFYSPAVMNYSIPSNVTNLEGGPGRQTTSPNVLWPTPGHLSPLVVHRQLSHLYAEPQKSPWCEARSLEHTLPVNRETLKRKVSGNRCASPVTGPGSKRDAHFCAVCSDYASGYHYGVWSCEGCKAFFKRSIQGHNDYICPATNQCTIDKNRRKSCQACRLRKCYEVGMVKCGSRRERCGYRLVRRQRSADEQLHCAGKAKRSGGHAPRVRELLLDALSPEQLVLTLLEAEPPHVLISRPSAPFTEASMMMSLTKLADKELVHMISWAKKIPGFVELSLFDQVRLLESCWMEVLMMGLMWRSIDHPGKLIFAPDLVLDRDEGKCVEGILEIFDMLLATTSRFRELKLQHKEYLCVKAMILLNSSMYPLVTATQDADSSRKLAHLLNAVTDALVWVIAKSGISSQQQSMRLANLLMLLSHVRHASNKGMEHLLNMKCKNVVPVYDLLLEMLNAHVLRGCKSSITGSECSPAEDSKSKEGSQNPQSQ

[15] = biological target: T2, Estrogen receptor beta
[16] = biological target: T3, Carboxy-terminal domain RNA polymerase II polypeptide A small phosphatase 1 (Homo sapiens, UniProt Q9GZU7); experiment: inhibitors of CTDSP1, concentration-response testing, biochemical assay, absorbance-based, actives from ultra-high-throughput screening (AID 540297); assay type: functional
T3 sequence (Q9GZU7 whole entry): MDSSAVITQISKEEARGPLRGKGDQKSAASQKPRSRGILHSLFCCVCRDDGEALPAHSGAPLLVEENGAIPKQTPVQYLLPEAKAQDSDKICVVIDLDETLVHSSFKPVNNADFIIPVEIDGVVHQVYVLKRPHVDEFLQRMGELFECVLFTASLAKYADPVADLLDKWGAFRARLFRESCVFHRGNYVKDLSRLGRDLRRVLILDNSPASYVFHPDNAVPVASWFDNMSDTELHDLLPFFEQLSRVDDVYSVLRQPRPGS

## CC(C)(C)OC(=O)c1c(N)n(Cc2ccco2)c2nc3ccccc3nc12
[1]
  IC50: > 100000 nM (not active)

## O=C(Cn1cnc2sc(-c3ccccc3)cc2c1=O)NCc1ccco1
[2]
  IC50: > 109000 nM (not active)
[3]
  IC50: 5160 nM (active)

## COc1ccccc1N1CCN(S(=O)(=O)c2c[nH]cn2)CC1
[1]
  IC50: > 100000 nM (not active)

## COc1ccc(C#Cc2ccc3c(c2)O[C@@H](CN(C)C(=O)Nc2cccc(OC)c2)[C@@H](C)CN([C@H](C)CO)S3(=O)=O)cc1
[4]
  AC50: 473 nM (active)
[5]
  AC50: 494 nM (active)
[6]
  AC50: 490 nM (active)
[7]
  AC50: 466 nM (active)
[8]
  AC50: 1070 nM (active)

## CC(C)Cc1ccc(/C=C/C(=O)N2CCOCC2)cc1
[9]
  EC50: 682 nM (active)
[10]
  EC50: 843 nM (active)
[11]
  EC50: < 100 nM (inconclusive)
[12]
  EC50: 250 nM (active)
[13]
  EC50: 374 nM (active)

## O=C(Nc1sc2c(c1C(=O)O)CCC2)c1ccccc1
[14]
  IC50: > 109000 nM (not active)
[15]
  IC50: 6880 nM (active)
[16]
  IC50: 12100 nM (active)

## COc1cc(NC(=O)c2cc3nc(C)cc(C)n3n2)c(OC)cc1Cl
[9]
  EC50: 389 nM (active)
[10]
  EC50: < 100 nM (active)
[11]
  EC50: 278 nM (active)
[12]
  EC50: 392 nM (active)
[13]
  EC50: 323 nM (active)
